Results from US10457654B2 (GENENTECH, INC., priority 2017, dated 2019).
Structures can show the parent of a compound that is named as a salt.

How the values were obtained:
hNav1.7 [1] = biological target: T1, hNav1.7 (Homo sapiens (Human), UniProt Q15858); test: Tritiated compound binding to membranes from cells expressing hNav1.7 and the β1 subunit, competitive binding (LBA, Ex. 243A); details: 100 pM [3H]compound, 18 h, room temperature; read-out: Nav1.7 (LBA) (Ex. 243A)
Experimental: Tritiated Compound Binding to Membranes Isolated from Cells that Heterologously Express hNav1.7 and the β1 Subunit
Preparation of membranes containing recombinantly expressed sodium channels: Frozen recombinant cell pellets were thawed on ice and diluted to 4 times the cell pellet weight with ice cold 50 mM Tris HCl, pH 7.4 buffer. The cell suspensions were homogenized on ice using a motorized glass dounce homogeniser. Homogenates were further diluted 8.4 times with ice cold 50 mM Tris HCl, pH 7.4 buffer and then centrifuged at 200×g at 4° C. for 15 min. The supernatants were collected and centrifuged at 10000×g at 4° C. for 50 min. […] The homogenized membranes were then processed through a syringe equipped with a 26 gauge needle. Protein concentrations were determined by Bradford Assay and the membranes were stored at −80° C.
Radioligand Binding Studies: Saturation experiments. A competitive NaV1.7 inhibitor having a methyl group was tritiated. Three tritiums were incorporated in place of methyl hydrogens to generate [^3H]compound. Binding of this radioligand was performed in 5 mL borosilicate glass test tubes at room temperature. […] Non-specific binding was determined in the presence of 1 μM unlabeled compound. After 18h, the reactants were filtered through GF/C glass fiber filters presoaked in 0.5% w/v polyethylene imine. […] [^3H]compound bound to filters was quantified by liquid scintillation counting.
Competitive binding experiments: Binding reactions were performed in 96-well polypropylene plates at room temperature for 18h. In 360 μL, membranes were incubated with 100 pM [^3H]compound and increasing concentrations of Test Compound. Non-specific binding was defined in the presence of 1 μM unlabeled compound. Reactions were transferred and filtered through 96-well glass fiber/C filter plates presoaked with 0.5% polyethylene imine. The filtered reactions were washed 5 times with 200 μL ice cold buffer containing 0.25% BSA. Bound radioactivity was determined by liquid scintillation counting.
Data Analysis: For saturation experiments, non-specific binding was subtracted from total binding to provide specific binding and these values were recalculated in terms of pmol ligand bound per mg protein. Saturation curves were constructed and dissociation constants were calculated using the single site ligand binding model: Beq=(Bmax*X)/(X+Kd), where Beq is the amount of ligand bound at equilibrium, Bmax is the maximum receptor density, Kd is the dissociation constant for the ligand, and X is the free ligand concentration. For competition studies percent inhibition was determined and IC50 values were calculated using a 4 parameter logistic model (% inhibition=(A+((B−A)/(1+((x/C)^D)))) using XLfit, where A and B are the maximal and minimum inhibition respectively, C is the IC50 concentration and D is the (Hill) slope.
Target sequence in this assay (Q15858 whole entry, looked up): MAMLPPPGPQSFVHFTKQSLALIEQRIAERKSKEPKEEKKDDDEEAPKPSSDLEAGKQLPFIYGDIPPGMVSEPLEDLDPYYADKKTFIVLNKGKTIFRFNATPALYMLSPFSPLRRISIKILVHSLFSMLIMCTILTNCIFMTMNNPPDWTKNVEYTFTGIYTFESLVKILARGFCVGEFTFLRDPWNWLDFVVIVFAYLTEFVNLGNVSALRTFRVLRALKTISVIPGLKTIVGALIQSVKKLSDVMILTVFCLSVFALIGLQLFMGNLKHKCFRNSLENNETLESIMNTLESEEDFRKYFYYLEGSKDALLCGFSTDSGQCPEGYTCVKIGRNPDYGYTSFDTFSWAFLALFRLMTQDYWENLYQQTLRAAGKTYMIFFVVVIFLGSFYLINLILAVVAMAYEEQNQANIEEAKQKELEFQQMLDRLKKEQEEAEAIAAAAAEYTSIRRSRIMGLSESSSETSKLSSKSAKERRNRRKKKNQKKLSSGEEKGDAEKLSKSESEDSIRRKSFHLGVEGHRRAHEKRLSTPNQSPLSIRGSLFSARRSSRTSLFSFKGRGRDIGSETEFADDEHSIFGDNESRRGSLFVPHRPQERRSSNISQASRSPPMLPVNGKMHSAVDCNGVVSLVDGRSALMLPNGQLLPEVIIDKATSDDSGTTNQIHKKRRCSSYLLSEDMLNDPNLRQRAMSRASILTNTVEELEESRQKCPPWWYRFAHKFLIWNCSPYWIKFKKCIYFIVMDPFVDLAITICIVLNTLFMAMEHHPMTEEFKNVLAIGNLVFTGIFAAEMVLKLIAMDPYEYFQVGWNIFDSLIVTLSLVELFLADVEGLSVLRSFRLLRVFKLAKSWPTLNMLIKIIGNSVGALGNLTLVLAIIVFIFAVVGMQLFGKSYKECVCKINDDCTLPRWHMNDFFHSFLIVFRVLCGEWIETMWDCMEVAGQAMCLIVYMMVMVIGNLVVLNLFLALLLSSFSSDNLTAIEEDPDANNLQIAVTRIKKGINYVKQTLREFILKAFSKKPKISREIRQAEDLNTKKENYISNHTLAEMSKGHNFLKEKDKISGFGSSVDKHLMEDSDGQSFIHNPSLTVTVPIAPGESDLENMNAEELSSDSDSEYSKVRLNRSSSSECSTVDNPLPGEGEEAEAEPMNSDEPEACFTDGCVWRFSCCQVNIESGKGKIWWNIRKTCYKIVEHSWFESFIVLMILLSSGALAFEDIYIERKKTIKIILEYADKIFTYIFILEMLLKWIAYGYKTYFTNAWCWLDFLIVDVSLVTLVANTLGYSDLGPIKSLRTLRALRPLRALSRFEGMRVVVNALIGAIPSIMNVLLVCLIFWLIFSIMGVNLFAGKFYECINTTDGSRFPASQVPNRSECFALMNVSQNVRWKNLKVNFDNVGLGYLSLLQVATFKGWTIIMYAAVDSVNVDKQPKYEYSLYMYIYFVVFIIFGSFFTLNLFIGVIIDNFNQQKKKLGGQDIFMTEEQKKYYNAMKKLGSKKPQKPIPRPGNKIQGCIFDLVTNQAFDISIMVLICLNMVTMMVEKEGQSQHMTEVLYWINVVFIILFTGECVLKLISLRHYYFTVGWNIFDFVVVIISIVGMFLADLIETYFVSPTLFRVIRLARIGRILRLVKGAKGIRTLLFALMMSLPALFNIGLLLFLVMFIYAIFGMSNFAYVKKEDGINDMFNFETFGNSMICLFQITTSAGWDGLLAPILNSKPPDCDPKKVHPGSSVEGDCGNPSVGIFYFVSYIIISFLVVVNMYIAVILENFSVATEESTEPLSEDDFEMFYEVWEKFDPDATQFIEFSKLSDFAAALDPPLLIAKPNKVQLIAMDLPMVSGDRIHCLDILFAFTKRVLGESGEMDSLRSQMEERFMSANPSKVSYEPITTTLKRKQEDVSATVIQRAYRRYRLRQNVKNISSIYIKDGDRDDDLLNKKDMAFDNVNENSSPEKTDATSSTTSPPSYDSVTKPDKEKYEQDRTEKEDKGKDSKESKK
Target sequence in this assay (Q07699 whole entry partner, looked up): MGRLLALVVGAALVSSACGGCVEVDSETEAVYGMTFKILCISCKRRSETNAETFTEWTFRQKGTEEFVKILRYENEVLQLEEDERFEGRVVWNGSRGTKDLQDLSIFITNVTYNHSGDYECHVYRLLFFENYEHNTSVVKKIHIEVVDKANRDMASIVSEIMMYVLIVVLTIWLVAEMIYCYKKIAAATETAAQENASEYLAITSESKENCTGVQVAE

hNav1.7 [2] = biological target: T1, hNav1.7; test: Tritiated compound binding to membranes from cells expressing hNav1.7 and the β1 subunit, modified protocol (LBA, Ex. 243B); details: 300 pM [3H]compound, room temperature, read-out: Nav1.7 LBA (Ex. 243B) IC50
Target sequence in this assay (Q15858 whole entry, looked up): as the sequence (Q15858 whole entry, looked up) above
Target sequence in this assay (Q07699 whole entry partner, looked up): as the sequence (Q07699 whole entry partner, looked up) above

hNav1.7 [3] = biological target: T1, hNav1.7; test: Patch voltage clamp electrophysiology assay (EP), Syncropatch 384PE, CHO cells expressing Nav1.7; format: cell-based; details: holding potential -50 mV; […] compound incubation; read-out: EP_SP hNav1.7 (Ex. 243B) IC50
Summary of the method: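 Automated whole-cell patch clamp on CHO cells stably expressing human Nav1.7, CsCl/EGTA internal and NMDG/80 mM Na+ external (pH 7.4). From −50 mV holding, −10 mV step, 20 ms recovery at −150 mV, then second −10 mV pulse where block is measured; inhibition after 7.5 min compound incubation.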
Target sequence in this assay (Q15858 other isoform, or with tags, fused parts or gaps): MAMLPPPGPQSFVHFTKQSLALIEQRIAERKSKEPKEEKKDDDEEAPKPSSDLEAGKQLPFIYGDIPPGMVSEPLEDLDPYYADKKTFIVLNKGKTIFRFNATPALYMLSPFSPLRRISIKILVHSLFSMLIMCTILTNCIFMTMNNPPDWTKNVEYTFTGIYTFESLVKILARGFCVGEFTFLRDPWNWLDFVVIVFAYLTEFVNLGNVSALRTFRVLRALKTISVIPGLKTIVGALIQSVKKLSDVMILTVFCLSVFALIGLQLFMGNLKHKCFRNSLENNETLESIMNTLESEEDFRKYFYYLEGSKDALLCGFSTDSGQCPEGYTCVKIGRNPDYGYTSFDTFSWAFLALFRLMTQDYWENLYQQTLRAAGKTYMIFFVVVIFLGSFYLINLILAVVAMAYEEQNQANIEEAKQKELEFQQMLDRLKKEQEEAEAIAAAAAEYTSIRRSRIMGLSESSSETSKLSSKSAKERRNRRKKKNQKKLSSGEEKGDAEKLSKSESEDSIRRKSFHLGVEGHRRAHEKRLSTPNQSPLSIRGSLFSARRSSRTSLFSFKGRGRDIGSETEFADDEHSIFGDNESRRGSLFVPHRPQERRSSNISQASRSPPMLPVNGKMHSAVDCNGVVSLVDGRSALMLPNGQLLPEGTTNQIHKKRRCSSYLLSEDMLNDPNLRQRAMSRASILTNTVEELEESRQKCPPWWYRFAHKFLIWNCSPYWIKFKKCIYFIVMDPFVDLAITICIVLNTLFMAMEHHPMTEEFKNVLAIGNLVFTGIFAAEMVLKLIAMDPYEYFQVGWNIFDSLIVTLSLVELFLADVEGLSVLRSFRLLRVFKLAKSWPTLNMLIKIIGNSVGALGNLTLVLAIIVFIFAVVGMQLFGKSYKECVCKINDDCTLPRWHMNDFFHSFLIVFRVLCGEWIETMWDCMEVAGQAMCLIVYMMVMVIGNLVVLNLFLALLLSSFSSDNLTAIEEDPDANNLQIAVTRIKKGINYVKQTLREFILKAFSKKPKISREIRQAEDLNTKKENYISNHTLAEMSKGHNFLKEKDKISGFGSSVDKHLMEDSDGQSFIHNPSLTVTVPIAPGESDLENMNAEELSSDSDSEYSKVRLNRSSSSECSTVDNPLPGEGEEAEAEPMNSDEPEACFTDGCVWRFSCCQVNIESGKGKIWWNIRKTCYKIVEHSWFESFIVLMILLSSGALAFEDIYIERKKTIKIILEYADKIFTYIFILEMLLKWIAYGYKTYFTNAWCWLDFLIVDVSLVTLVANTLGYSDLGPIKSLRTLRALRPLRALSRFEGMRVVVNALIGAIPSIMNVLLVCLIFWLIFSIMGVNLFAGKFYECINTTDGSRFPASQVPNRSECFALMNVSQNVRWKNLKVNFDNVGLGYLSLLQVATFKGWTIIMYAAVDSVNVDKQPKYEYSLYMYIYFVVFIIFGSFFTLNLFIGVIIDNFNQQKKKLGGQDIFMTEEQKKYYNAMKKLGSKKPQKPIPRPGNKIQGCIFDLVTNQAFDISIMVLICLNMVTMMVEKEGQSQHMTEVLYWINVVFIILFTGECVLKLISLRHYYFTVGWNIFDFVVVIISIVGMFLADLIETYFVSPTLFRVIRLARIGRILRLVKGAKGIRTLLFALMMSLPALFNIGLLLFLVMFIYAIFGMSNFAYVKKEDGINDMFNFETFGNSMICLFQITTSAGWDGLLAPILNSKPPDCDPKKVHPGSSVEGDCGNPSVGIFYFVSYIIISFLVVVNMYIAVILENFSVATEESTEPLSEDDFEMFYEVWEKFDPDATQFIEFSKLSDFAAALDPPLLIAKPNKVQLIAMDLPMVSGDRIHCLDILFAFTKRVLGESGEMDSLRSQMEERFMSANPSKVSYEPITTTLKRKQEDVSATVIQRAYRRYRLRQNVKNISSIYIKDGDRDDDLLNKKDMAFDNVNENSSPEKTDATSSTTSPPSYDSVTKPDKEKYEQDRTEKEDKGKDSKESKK

For “5-chloro-4-(((1 S,2S)-2-(ethylamino)cyclohexyl)amino)-2-fluoro-N-(pyrimidin-4-yl)benzenesulfonamide [Example 22]”, the IC50 (hNav1.7 [1]) was 95.1 nM.

In the case of `N[C@H]1CCCC[C@@H]1Nc1cc(F)c(S(=O)(=O)Nc2nccs2)cc1Cl` [Example 1, 4-(((1S,2S)-2-aminocyclohexyl)amino)-5-chloro-2-fluoro-N-(thiazol-2-yl)benzenesulfonamide], the IC50 (hNav1.7 [1]) is reported as 197 nM.

In the case of `CN(C)[C@H]1CCCC[C@@H]1Nc1cc(F)c(S(=O)(=O)Nc2nccs2)cc1Cl` [Example 2, 5-chloro-4-(((1S,2S)-2-(dimethylamino)cyclohexyl)amino)-2-fluoro-N-(thiazol-2-yl)benzenesulfonamide], the IC50 (hNav1.7 [1]) is reported as 38.2 nM.

`CN[C@H]1CCCC[C@@H]1Nc1cc(F)c(S(=O)(=O)Nc2nccs2)cc1Cl` [Example 3, 5-chloro-2-fluoro-4-(((1S,2S)-2-(methylamino)cyclohexyl)amino)-N-(thiazol-2-yl)benzenesulfonamide 2,2,2-trifluoroacetate] gave an IC50 (hNav1.7 [1]) of 16 nM.

With `CCN[C@H]1CCCC[C@@H]1Nc1cc(F)c(S(=O)(=O)Nc2nccs2)cc1Cl` [Example 4, 2,2,2-trifluoroacetate] the IC50 (hNav1.7 [1]) was 4.15 nM.

`O=S(=O)(Nc1nccs1)c1cc(Cl)c(N[C@H]2CCCC[C@@H]2NCc2ccccc2)cc1F` [Example 5, 4-(((1S,2S)-2-(benzylamino)cyclohexyl)amino)-5-chloro-2-fluoro-N-(thiazol-2-yl)benzenesulfonamide 2,2,2-trifluoroacetate] gave an IC50 (hNav1.7 [1]) of 426 nM.

Compound `CCN(Cc1ccccc1)[C@H]1CCCC[C@@H]1Nc1cc(F)c(S(=O)(=O)Nc2nccs2)cc1Cl` [Example 6, 4-(((1S,2S)-2-(benzyl(ethyl)amino)cyclohexyl)amino)-5-chloro-2-fluoro-N-(thiazol-2-yl)benzenesulfonamide] has an IC50 (hNav1.7 [1]) of 994 nM.

With `CN(C)[C@H]1CCCC[C@@H]1Oc1cc(F)c(S(=O)(=O)Nc2nccs2)cc1Cl` [Example 7, 5-chloro-4-(((1S,2S)-2-(dimethylamino)cyclohexyl)oxy)-2-fluoro-N-(thiazol-2-yl)benzenesulfonamide] the IC50 (hNav1.7 [1]) was 89.9 nM.

Work on `CN(C)[C@@H]1CCCC[C@H]1Oc1cc(F)c(S(=O)(=O)Nc2nccs2)cc1Cl` [Example 8, 5-chloro-4-(((1R,2R)-2-(dimethylamino)cyclohexyl)oxy)-2-fluoro-N-(thiazol-2-yl)benzenesulfonamide] yielded an IC50 (hNav1.7 [1]) of 3000 nM.

`CN(C)[C@H]1CCC[C@@H]1Oc1cc(F)c(S(=O)(=O)Nc2nccs2)cc1Cl` [Example 9, 5-chloro-4-(((1S,2S)-2-(dimethylamino)cyclopentyl)oxy)-2-fluoro-N-(thiazol-2-yl)benzenesulfonamide] showed an IC50 (hNav1.7 [1]) of 3000 nM.

With `CN(C)[C@@H]1CCC[C@H]1Oc1cc(F)c(S(=O)(=O)Nc2nccs2)cc1Cl` [Example 10, 5-chloro-4-(((1R,2R)-2-(dimethylamino)cyclopentyl)oxy)-2-fluoro-N-(thiazol-2-yl)benzenesulfonamide] the IC50 (hNav1.7 [1]) was 553 nM.

`CN(C)[C@H]1CCCC[C@@H]1Nc1cc(F)c(S(=O)(=O)Nc2ccncn2)cc1Cl` [Example 11, 5-chloro-4-(((1S,2S)-2-(dimethylamino)cyclohexyl)amino)-2-fluoro-N-(pyrimidin-4-yl)benzenesulfonamide] gave an IC50 (hNav1.7 [1]) of 126 nM.

In the case of `CN(C)[C@H]1CCC[C@@H]1Nc1cc(F)c(S(=O)(=O)Nc2nccs2)cc1Cl` [Example 12, 5-chloro-4-(((1S,2S)-2-(dimethylamino)cyclopentyl)amino)-2-fluoro-N-(thiazol-2-yl)benzenesulfonamide], the IC50 (hNav1.7 [1]) is reported as 165 nM.

`CN(C)[C@H]1CCCC[C@@H]1Nc1cc(F)c(S(=O)(=O)Nc2ncns2)cc1F` [Example 13, 4-(((1S,2S)-2-(dimethylamino)cyclohexyl)amino)-2,5-difluoro-N-(1,2,4-thiadiazol-5-yl)benzenesulfonamide formate] was tested, and the IC50 (hNav1.7 [1]) was 357 nM.

`CN(C)[C@H]1CCCC[C@@H]1Nc1cc(F)c(S(=O)(=O)Nc2nccs2)cc1Br` [Example 14, 5-bromo-4-[[(1S,2S)-2-(dimethylamino)cyclohexyl]amino]-2-fluoro-N-thiazol-2-yl-benzenesulfonamide] showed an IC50 (hNav1.7 [1]) of 21.9 nM.

Work on `CN(C)[C@H]1CCCC[C@@H]1Nc1cc(F)c(S(=O)(=O)Nc2nccs2)cc1C1CC1` [Example 15, 5-cyclopropyl-4-[[(1S,2S)-2-(dimethylamino)cyclohexyl]amino]-2-fluoro-N-thiazol-2-yl-benzenesulfonamide] yielded an IC50 (hNav1.7 [1]) of 26.9 nM.

Work on `O=S(=O)(Nc1nccs1)c1cc(Cl)c(N[C@H]2CCCC[C@@H]2NC2CCC2)cc1F` [Example 16, 5-chloro-4-[[(1S,2S)-2-(cyclobutylamino)cyclohexyl]amino]-2-fluoro-N-thiazol-2-yl-benzenesulfonamide] yielded an IC50 (hNav1.7 [1]) of 325 nM.

In the case of `CCN(CC)[C@H]1CCCC[C@@H]1Nc1cc(F)c(S(=O)(=O)Nc2nccs2)cc1Cl` [Example 17, 5-chloro-4-[[(1S,2S)-2-(diethylamino)cyclohexyl]amino]-2-fluoro-N-thiazol-2-yl-benzenesulfonamide], the IC50 (hNav1.7 [1]) is reported as 237 nM.

In the case of `CCN(C)[C@H]1CCCC[C@@H]1Nc1cc(F)c(S(=O)(=O)Nc2nccs2)cc1Cl` [Example 18, 5-chloro-4-[[(1S,2S)-2-[ethyl(methyl)amino]cyclohexyl]amino]-2-fluoro-N-thiazol-2-yl-benzenesulfonamide], the IC50 (hNav1.7 [1]) is reported as 16.8 nM.

Compound `CN(C1CC1)[C@H]1CCCC[C@@H]1Nc1cc(F)c(S(=O)(=O)Nc2nccs2)cc1Cl` [Example 19, 5-chloro-4-[[(1S,2S)-2-[cyclopropyl(methyl)amino]cyclohexyl]amino]-2-fluoro-N-thiazol-2-yl-benzenesulfonamide] has an IC50 (hNav1.7 [1]) of 45.1 nM.

`CN(C)[C@H]1C[C@@H](c2cccc(C(F)(F)F)c2)CC[C@@H]1Nc1cc(F)c(S(=O)(=O)Nc2ccncn2)cc1C1CCC1` [Example 236, 5-cyclobutyl-4-(((1S,2S,4S)-2-(dimethylamino)-4-(3-(trifluoromethyl)phenyl)cyclohexyl)amino)-2-fluoro-N-(pyrimidin-4-yl)benzenesulfonamide] gave an IC50 (hNav1.7 [2]) of 0.593 nM and an IC50 (hNav1.7 [3]) of 1.6 nM.

Compound `CN(C)[C@H]1C[C@@H](c2cccc(C(F)(F)F)c2)CC[C@@H]1Nc1ccc(S(=O)(=O)Nc2ccncn2)c(F)c1` [Example 237, 4-(((1S,2S,4S)-2-(Dimethylamino)-4-(3-(trifluoromethyl)phenyl)cyclohexyl)amino)-2-fluoro-N-(pyrimidin-4-yl)benzenesulfonamide formate] has an IC50 (hNav1.7 [2]) of 2.43 nM and an IC50 (hNav1.7 [3]) of 1.07 nM.

With `CN(C)[C@H]1C[C@@H](c2cccc(C(F)(F)F)c2)CC[C@@H]1Oc1cc(F)c(S(=O)(=O)Nc2ccncn2)cc1Cl` [Example 238, 5-chloro-4-(((1S,2S,4S)-2-(dimethylamino)-4-(3-(trifluoromethyl)phenyl)cyclohexyl)oxy)-2-fluoro-N-(pyrimidin-4-yl)benzenesulfonamide] the IC50 (hNav1.7 [2]) was 5.54 nM and the IC50 (hNav1.7 [3]) was 1.17 nM.

`CN(C)[C@H]1C[C@@H](c2cccc(C(F)(F)F)c2)CC[C@@H]1Nc1cc(F)c(S(=O)(=O)Nc2ccncn2)cc1O` [Example 240, 4-(((1S,2S,4S)-2-(Dimethylamino)-4-(3-(trifluoromethyl)phenyl)cyclohexyl)amino)-2-fluoro-5-hydroxy-N-(pyrimidin-4-yl)benzenesulfonamide formate] gave an IC50 (hNav1.7 [2]) of 15 nM and an IC50 (hNav1.7 [3]) of 2.9 nM.

`COc1cc(S(=O)(=O)Nc2ccncn2)c(F)cc1N[C@H]1CC[C@H](c2cccc(C(F)(F)F)c2)C[C@@H]1N(C)C` [Example 241, 4-(((1S,2S,4S)-2-(Dimethylamino)-4-(3-(trifluoromethyl)phenyl)cyclohexyl)amino)-2-fluoro-5-methoxy-N-(pyrimidin-4-yl)benzenesulfonamide formate] gave an IC50 (hNav1.7 [2]) of 3.73 nM and an IC50 (hNav1.7 [3]) of 1.48 nM.

`O=S(=O)(Nc1ccncn1)c1cc(Cl)c(N[C@H]2CC[C@H](c3cccc(C(F)(F)F)c3)C[C@@H]2N2CCCC2)cc1F` [Example 242, 5-chloro-2-fluoro-N-(pyrimidin-4-yl)-4-(((1S,2S,4S)-2-(pyrrolidin-1-yl)-4-(3 (trifluoromethyl)phenyl)cyclohexyl)amino)benzenesulfonamide] was tested, and the IC50 (hNav1.7 [2]) was 0.428 nM and the IC50 (hNav1.7 [3]) was 0.182 nM.
